Here are results for ten compounds from patent US20170151215A1, “USE OF ROTIGOTINE FOR TREATING THE RESTLESS LEG SYNDROME” (UCB PHARMA GMBH, priority 2002, published 2017).

For series [1], the system named is Restless Leg Syndrome (RLS). The note with it: cited from earlier work; for effectiveness in RLS / side effects: short-term therapy studies; for side effects: usually in the beginning and as a function of the dosage.
Series [2] deals with patients suffering from moderate to very severe idiopathic Restless Leg Syndrome. In words: placebo-controlled, double-blind, randomized clinical test of rotigotine TTS in Restless Leg Syndrome patients. It is filed as in vivo, human. The settings on record: for Reduction of the average IRLSSG Value as compared to Placebo Treatment by Day 8: 8 days treatment. The source says: The rotigotine TTS produced per one of the above implementation examples was investigated in placebo-controlled, double-blind, randomized clinical tests at several centers, covering in a study with triple-branched parallel groups 63 patients who were suffering from moderate to very severe idiopathic Restless Leg Syndrome conditions.
The average age of the patients was 58.3 years. Randomization in the three treatment groups in terms of gender, age and severity of prior illnesses was reasonably balanced.
Over a treatment period of eight (8) days the patients of one group were treated with 5 cm^2 TTS and the patients of another group were treated with 10 cm^2 TTS. For a comparison the patients in the placebo group were treated with a placebo TTS. Within 24 hours, each of the above-mentioned drug-containing TTS's released 2.25 mg and, respectively, 4.5 mg rotigotine to the patient concerned.
As a result of the prespecified primary effectiveness the activities of daily life and the motoricity had changed, based on the generally accepted rating scale of the International Restless Leg Syndrome Study Group (IRLSSG), from the initial value to that in the concluding treatment evaluation (8th day).
On the basis of 10 questions, the IRLSSG measures and rates the following clinical parameters in Restless Leg patients:
The overall IRLSSG rating is derived from the individual values as follows:
First, an initial starting value is determined for each patient participating in the study. This is done by adding up the individual IRLSSG parameter values as of Day 0, i.e. before the treatment. Over the course of the treatment the IRLSSG values are compared with the starting value and any changes from that starting value are recorded. Finally, the average improvement of the IRLSSG value as of Day 8 over the starting value is determined by calculating the average of all test subjects. The resulting value is called CAS—(complete analysis set) randomized average change from the starting value of the overall IRLSSG rating.
Patients suffering from the Restless Leg Syndrome have been known to display a relatively strong response to placebos, meaning that even when treated with placebos these Restless Leg Syndrome patients show a certain improvement of their IRLSSG values. It is therefore important to compare any effect of the drug treatment with the degree of the IRLSSG improvement obtained through placebo treatment over the same time period. Thus, the final assessment of the improvement takes into account the effect of a placebo treatment during the same time period.

For the compound `N[C@@H](Cc1ccc(O)c(O)c1)C(=O)O` [L-DOPA, levodopa], in series [1] (long-term therapy), the “effect on the disorder (RLS)” value was “clear mitigation of the disorder”.
Turning to `CCCN(CCc1cccs1)[C@H]1CCc2c(O)cccc2C1` [Rotigotine, (-)-5,6,7,8-tetrahydro-6-[propyl [2-(2-thienyl)ethyl]amino]-1-naphtol], the “Reduction of the average IRLSSG Value as compared to Placebo Treatment by Day 8” value in series [2] (5 cm^2 TTS, 2.25 mg rotigotine per 24 hours, p (one side) 0.09) is listed as 3.6; in series [2] (10 cm^2 TTS, 4.5 mg rotigotine per 24 hours, p (one side) 0.04) it was 6.3. Also, the “skin reactions at the point of application” value in series [2] (administered via the TTS) is “generally very minor”. For the same compound, the tolerability entry is “generally well tolerated” in series [2] (administered via the TTS); “well tolerated and safe” in series [2] (administered via the TTS, listed as rotigotine). Further, the “subjective symptoms (tingling, cramps and pain in the legs, restlessness during the night, difficulties falling or remaining asleep)” value in series [2] (end of the 8-day treatment, both patient groups (5 cm^2 and 10 cm^2 TTS)) is on record as “either disappeared or diminished to a tolerable minimum”. Besides, the “daytime weariness, nausea, dizziness, vomiting, insomnia caused by the treatment” value in series [2] (patient reports, as a function of the dose administered) is given as “did not or only to a very minimal extent cause”. In addition, the “clinical improvement in patients in a moderate to severe stage of Restless Leg Syndrome” value in series [2] (transdermally administered once daily) is “distinct clinical improvement”.
As for `CC(C)C[C@H]1C(=O)N2CCC[C@H]2[C@]2(O)O[C@](NC(=O)[C@@H]3C[C@@H]4c5cccc6[nH]cc(c56)C[C@H]4N(C)C3)(C(C)C)C(=O)N12` [alpha dihydroergocryptine], in series [1], the “effectiveness in RLS” value is reported as “effective” and the side effects entry was “nausea, vomiting, dizziness, hypotension, constipation or insomnia”.
On to `CC(C)C[C@H]1C(=O)N2CCC[C@H]2[C@]2(O)O[C@](NC(=O)[C@@H]3C=C4c5cccc6[nH]c(Br)c(c56)C[C@H]4N(C)C3)(C(C)C)C(=O)N12` [bromocriptine], for which, in series [1], the side effects entry was “nausea, vomiting, dizziness, hypotension, constipation or insomnia”.
For the compound `C=CCN1C[C@H](C(=O)N(CCCN(C)C)C(=O)NCC)C[C@@H]2c3cccc4[nH]cc(c34)C[C@H]21` [cabergolin], in series [1], the “effectiveness in RLS” value is listed as “effective” and the side effects entry was “nausea, vomiting, dizziness, hypotension, constipation or insomnia”.
On to `Clc1cccc(Cl)c1NC1=NCCN1` [clonidine, 2-(2,6-dichloroanilino)-4,5-dihydroimidazol], for which, in series [1] (treatment of RLS), the “frequency of waking up” value was “no effect”, the “periodic leg movement during sleep (PLMS)” value was “no effect”, the quality of sleep result was “no effect” and the soporiferous latency result is listed as “reduced”.
In the case of `CCN(CC)C(=O)N[C@H]1C=C2c3cccc4[nH]cc(c34)C[C@H]2N(C)C1` [lisuride], in series [1], the “effectiveness in RLS” value is “effective” and the side effects result is listed as “nausea, vomiting, dizziness, hypotension, constipation or insomnia”.
Turning to `CCCN1C[C@H](CSC)C[C@@H]2c3cccc4[nH]cc(c34)C[C@H]21` [pergolide], in series [1], the “effectiveness in RLS” value is “effective” and the side effects result is given as “nausea, vomiting, dizziness, hypotension, constipation or insomnia”.
For the compound `CCCN[C@H]1CCc2nc(N)sc2C1` [pramipexol], in series [1] (in vivo), the serious side effect entry is reported as “Attacks of drowsiness”. In series [1], the “effectiveness in RLS” value is on record as “effective” and the side effects result is “nausea, vomiting, dizziness, hypotension, constipation or insomnia”.
For `CCCN(CCC)CCc1cccc2c1CC(=O)N2` [ropinirol], in series [1], the “effectiveness in RLS” value is given as “effective” and the side effects entry is given as “nausea, vomiting, dizziness, hypotension, constipation or insomnia”.
